# Assays:
# NRAS G12C = NRAS G12C (Homo sapiens, UniProt P01111+P62937, G12C); test: Disruption of BRAF RBD interaction with Ras (FRET / MOA assay, with Cyclophilin A); type: biochemical; conditions: NRAS G12C; read-out: NRAS G12C FRET data IC50
# NRAS Q61K = NRAS Q61K (Homo sapiens, UniProt P01111+P62937, Q61K); test: as above; type: biochemical; conditions: NRAS Q61K; read-out: NRAS Q61K FRET data IC50
# How it was run: (§1)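 TR-FRET in 25 mM HEPES pH 7.3, 100 mM NaCl, 5 mM MgCl2, 0.1% BSA: 25 μM Cyclophilin A, 12.5 nM His6-Ras-GMPPNP, 50 nM GST-BRAF RBD with compound (10-point 3-fold series from 30 μM), 3 h at 25° C. Anti-His Eu/anti-GST APC added, 1.5 h more; IC50 from decreased FRET ratio versus DMSO.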
# NRAS Q61R = NRAS Q61R (Homo sapiens, UniProt P01111+P62937, Q61R); test: as above; type: biochemical; conditions: NRAS Q61R; read-out: NRAS Q61R FRET data IC50
# How it was run: as §1
# [1] = tested on: K-Ras G12C (NCI-H358 cells); test: Potency assay: pERK (AlphaLISA SureFire or In-Cell Western); type: cell-based; conditions: Homo sapiens, NCI-H358; H358 KRAS G12C; read-out: pERK EC50
# How it was run: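 NCI-H358 cells plated overnight, then treated 4 h at 37 °C with 10-point 3-fold DMSO dilutions (10 mM top stock), in duplicate. pERK1/2 read by AlphaLISA SureFire Ultra lysate assay or by In-Cell Western with DRAQ5 DNA stain. IC50 from 4-parameter sigmoidal fit of signal vs log concentration.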
# NCI-H358 (K-Ras G12C) = test: CellTiter-Glo cell viability assay, 5-day treatment; type: cell-based; conditions: Homo sapiens, NCI-H358, H358, K-Ras G12C; read-out: Additional H358 Cell Viability assay data (K-Ras G12C, IC50)
# How it was run: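 Compounds were dispensed directly onto seeded cells and incubated for 5 days, then plates were equilibrated to room temperature for about 30 minutes before luminescence reading. Signals were expressed as percent of the mean DMSO control and fitted with a four-parameter logistic curve.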
# Chain of NRAS Q61K (P01111 whole entry Q61K): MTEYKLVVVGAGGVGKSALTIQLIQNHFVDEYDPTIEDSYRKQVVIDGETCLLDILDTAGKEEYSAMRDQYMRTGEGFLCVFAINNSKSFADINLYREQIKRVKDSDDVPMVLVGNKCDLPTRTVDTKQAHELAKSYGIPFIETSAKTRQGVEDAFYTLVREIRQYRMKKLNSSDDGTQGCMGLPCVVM
# Chain of NRAS Q61K (P62937 whole entry): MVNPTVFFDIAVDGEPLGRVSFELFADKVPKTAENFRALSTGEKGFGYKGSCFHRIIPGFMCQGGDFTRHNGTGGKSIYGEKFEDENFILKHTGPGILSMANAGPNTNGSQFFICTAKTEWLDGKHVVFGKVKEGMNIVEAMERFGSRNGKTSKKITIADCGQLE
# Chain of NRAS G12C (P01111 whole entry G12C): as the sequence (P01111 whole entry Q61K) above, with G12C, K61Q counted along it
# Chain of NRAS G12C (P62937 whole entry): as the sequence (P62937 whole entry) above
# Chain of NRAS Q61R (P01111 whole entry Q61R): as the sequence (P01111 whole entry Q61K) above, with K61R counted along it
# Chain of NRAS Q61R (P62937 whole entry): as the sequence (P62937 whole entry) above
Compound,IC50 (NRAS G12C),IC50 (NRAS Q61K),IC50 (NRAS Q61R),EC50 [1],IC50 (NCI-H358 (K-Ras G12C))
CO[C@@H](C)c1ncccc1-c1c2c3cc(ccc3n1CC(F)(F)F)-c1csc(n1)C[C@H](NC(=O)[C@H](C(C)C)N(C)C(=O)N1CCC3(CC1)CN(C(=O)/C=C/CF)C3)C(=O)N1CCCC(N1)C(=O)OCC(C)(C)C2 (some centres unmarked) [Example A602],10 to 100 nM,10 to 100 nM,10 to 100 nM,< 5000 nM,< 10 nM
CCn1c(-c2cccnc2[C@H](C)OC)c2c3cc(ccc31)N1CCC[C@@H](C[C@H](NC(=O)[C@H](C(C)C)N(C)C(=O)C3CCN(C(=O)C#CC(C)(C)N4CCC4)C3)C(=O)N3CCCC(N3)C(=O)OCC(C)(C)C2)C1 (some centres unmarked) [Example A617],10 to 100 nM,> 10000 nM,> 10000 nM,< 5000 nM,10 to 100 nM
C=CC(=O)N1CCC[C@H]2CN(C(=O)N(C)[C@H](C(=O)N[C@H]3Cc4nc(cs4)-c4ccc5c(c4)c(c(-c4cccnc4[C@H](C)OC)n5CC)CC(C)(C)COC(=O)C4CCCN(N4)C3=O)C(C)C)C[C@H]21 (some centres unmarked) [Example A618],100 to 1000 nM,100 to 1000 nM,100 to 1000 nM,< 5000 nM,10 to 100 nM
C=CC(=O)N1CCC[C@@H]2CN(C(=O)N(C)[C@H](C(=O)N[C@H]3Cc4nc(cs4)-c4ccc5c(c4)c(c(-c4cccnc4[C@H](C)OC)n5CC)CC(C)(C)COC(=O)C4CCCN(N4)C3=O)C(C)C)C[C@@H]21 (some centres unmarked) [Example A619],100 to 1000 nM,100 to 1000 nM,100 to 1000 nM,< 5000 nM,10 to 100 nM
C=CC(=O)N1CC2(C1)OCCN2C(=O)N(C)[C@H](C(=O)N[C@H]1Cc2nc(cs2)-c2ccc3c(c2)c(c(-c2cccnc2[C@H](C)OC)n3CC)CC(C)(C)COC(=O)C2CCCN(N2)C1=O)C(C)C (some centres unmarked) [Example A620],< 10 nM,10 to 100 nM,100 to 1000 nM,< 5000 nM,< 10 nM
C=CC(=O)N(C)CCC1CCN(C(=O)N(C)[C@H](C(=O)N[C@H]2Cc3nc(cs3)-c3ccc4c(c3)c(c(-c3cccnc3[C@H](C)OC)n4CC)CC(C)(C)COC(=O)C3CCCN(N3)C2=O)C(C)C)CC1 (some centres unmarked) [Example A621],10 to 100 nM,10 to 100 nM,10 to 100 nM,< 5000 nM,< 10 nM
CCn1c(-c2cccnc2[C@H](C)OC)c2c3cc(ccc31)-c1cccc(n1)C[C@H](NC(=O)[C@H](C(C)C)N(C)C(=O)N1CCC13CN(C(=O)C#CC(C)(C)N(C)C)C3)C(=O)N1CCCC(N1)C(=O)OCC(C)(C)C2 (some centres unmarked) [Example A623],100 to 1000 nM,100 to 1000 nM,1000 to 10000 nM,< 5000 nM,10 to 100 nM
CCn1c(-c2cccnc2[C@H](C)OC)c2c3cc(ccc31)-c1csc(n1)C[C@H](NC(=O)[C@H](C(C)C)N(C)C(=O)N1C[C@@H]3CN(C(=O)C#CC(C)(C)N(C)C)CC[C@@H]31)C(=O)N1CCCC(N1)C(=O)OCC(C)(C)C2 (some centres unmarked) [Example A625],100 to 1000 nM,100 to 1000 nM,100 to 1000 nM,< 5000 nM,10 to 100 nM
CCn1c(-c2cccnc2[C@H](C)OC)c2c3cc(ccc31)-c1csc(n1)C[C@H](NC(=O)[C@@H](F)COC1CN(C(=O)C#CC(C)(C)N(C)C)C1)C(=O)N1CCCC(N1)C(=O)OCC(C)(C)C2 (some centres unmarked) [Example A626],< 10 nM,1000 to 10000 nM,1000 to 10000 nM,< 5000 nM,10 to 100 nM
CCn1c(-c2cccnc2[C@H](C)OC)c2c3cc(ccc31)-c1csc(n1)C[C@H](NC(=O)[C@H](F)COC1CN(C(=O)C#CC(C)(C)N(C)C)C1)C(=O)N1CCCC(N1)C(=O)OCC(C)(C)C2 (some centres unmarked) [Example A627],< 10 nM,> 10000 nM,> 10000 nM,< 5000 nM,< 10 nM
CO[C@@H](C)c1ncccc1-c1c2c3cc(ccc3n1CC(F)(F)F)N1CCO[C@@H](C[C@H](NC(=O)[C@H](C(C)C)N3CC[C@@]4(CCN(C(=O)C#CC(C)(C)N(C)C)C4)C3=O)C(=O)N3CCCC(N3)C(=O)OCC(C)(C)C2)C1 [Example A628],< 10 nM,> 10000 nM,> 10000 nM,< 5000 nM,10 to 100 nM
C=CC(=O)N(C)[C@H]1CN(C(=O)N(C)[C@H](C(=O)N[C@H]2Cc3nc(cs3)-c3ccc4c(c3)c(c(-c3cccnc3[C@H](C)OC)n4CC)CC(C)(C)COC(=O)C3CCCN(N3)C2=O)C(C)C)C[C@H]1F (some centres unmarked) [Example A631],10 to 100 nM,10 to 100 nM,100 to 1000 nM,< 5000 nM,< 10 nM
C=CC(=O)N(C)[C@H]1CN(C(=O)N(C)[C@H](C(=O)N[C@H]2Cc3nc(cs3)-c3ccc4c(c3)c(c(-c3cccnc3[C@H](C)OC)n4CC)CC(C)(C)COC(=O)C3CCCN(N3)C2=O)C(C)C)C[C@@H]1F (some centres unmarked) [Example A632],10 to 100 nM,100 to 1000 nM,100 to 1000 nM,< 5000 nM,100 to 1000 nM
C=CC(=O)N1CCCC2(CCN(C(=O)N(C)[C@H](C(=O)N[C@H]3Cc4nc(cs4)-c4ccc5c(c4)c(c(-c4cccnc4[C@H](C)OC)n5CC)CC(C)(C)COC(=O)C4CCCN(N4)C3=O)C(C)C)CC2)C1 (some centres unmarked) [Example A635],100 to 1000 nM,100 to 1000 nM,100 to 1000 nM,< 5000 nM,100 to 1000 nM
C=CC(=O)N1CC2(CCN2C(=O)N(C)[C@H](C(=O)N[C@H]2Cc3cccc(n3)-c3ccc4c(c3)c(c(-c3cccnc3[C@H](C)OC)n4CC)CC(C)(C)COC(=O)C3CCCN(N3)C2=O)C(C)C)C1 (some centres unmarked) [Example A636],10 to 100 nM,100 to 1000 nM,100 to 1000 nM,< 5000 nM,< 10 nM
C=CC(=O)N1CC[C@H](C(=O)N(C)[C@@H](CC(F)(F)F)C(=O)N[C@H]2Cc3cccc(c3)-c3ccc4c(c3)c(c(-c3cccnc3[C@H](C)OC)n4CC)CC(C)(C)COC(=O)C3CCCN(N3)C2=O)C1 (some centres unmarked) [Example A639],100 to 1000 nM,1000 to 10000 nM,1000 to 10000 nM,< 5000 nM,100 to 1000 nM
C=CC(=O)N1CC[C@H](C(=O)N(C)[C@H](C(=O)N[C@H]2Cc3cccc(c3)-c3ccc4c(c3)c(c(-c3cccnc3[C@H](C)OC)n4CC)CC(C)(C)COC(=O)C3CCCN(N3)C2=O)[C@@H](C)C(F)(F)F)C1 (some centres unmarked) [Example A640],100 to 1000 nM,1000 to 10000 nM,1000 to 10000 nM,< 5000 nM,10 to 100 nM
C=CC(=O)N1CC[C@H](C(=O)N(C)[C@H](C(=O)N[C@H]2Cc3cccc(c3)-c3ccc4c(c3)c(c(-c3cccnc3[C@H](C)OC)n4CC)CC(C)(C)COC(=O)C3CCCN(N3)C2=O)[C@H](C)C(F)(F)F)C1 (some centres unmarked) [Example A641],100 to 1000 nM,1000 to 10000 nM,1000 to 10000 nM,< 5000 nM,10 to 100 nM
C=CC(=O)N1CC2[C@@H](C1)CN2C(=O)N(C)[C@H](C(=O)N[C@H]1Cc2nc(cs2)-c2ccc3c(c2)c(c(-c2cccnc2[C@H](C)OC)n3CC)CC(C)(C)COC(=O)[C@@H]2CCCN(N2)C1=O)C(C)C (some centres unmarked) [Example A686],10 to 100 nM,10 to 100 nM,100 to 1000 nM,< 5000 nM,< 10 nM
